The subject of assay [1] is mixture of Pseudomonas species containing predominantly Pseudomonas putida and Pseudomonas stutzeri. As to the kind of experiment: Biocidal activity in slurry (Total Viable Count after inoculation). It counts as cell-based. As to conditions: GNCCS1 slurry; Tables 1, 2 and 4. On the procedure: (§1) All quoted bacterial counts (Total Viable Count (TVC) values are in cfu/ml) in the Tables herebelow are determined after 5 days following plate-out and in accordance with counting method described in “Bestimmung von aeroben mesophilen Keimen”, Schweizerisches Lebensmittelbuch, chapter 56, section 7.01, edition of 1985, revised version of 1988.
Biocide mixture 1 (BM1) is an aqueous solution containing 24% by weight of GDA and 1.5% by weight of a combination of CIT and MIT (in a weight ratio CIT:MIT of 3:1), relative to the total solution weight. BM1 and AMP were introduced into 50 g samples of each of the slurries indicated in Table 1 in the listed amounts (quoted in ppm based on the weight of the aqueous phase in the slurry). References were prepared according to the same protocol but in absence of AMP and in absence of AMP and BM1.
The slurry samples were then inoculated with 1 ml of a mixture of Pseudomonas species containing predominantly Pseudomonas putida and Pseudomonas stutzeri. Each of the samples was incubated at 30° C. for 72 hours. Thereafter, a 1:10 dilution in phosphate buffered saline (PBS) was plated on plate count agar (PCA). These plates were incubated at 30° C. and analysed after 5 days. […]

Assay [2] relates to mixture of Pseudomonas species containing predominantly Pseudomonas putida and Pseudomonas stutzeri that are resistant to BM2. As to the kind of experiment: Biocidal activity in slurry, BM2-resistant bacteria. The class given is cell-based. As to conditions: GNCCS1 slurry. On the procedure:
as §1
BM2 and AMP were introduced into 50 g samples of each of the slurries indicated in Table 5 in the listed amounts (quoted in ppm based on the weight of the aqueous phase in the slurry). A reference was prepared according to the same protocol but in absence of AMP. References were prepared according to the same protocol but in absence of AMP and in absence of AMP and BM2.
The slurry samples were then inoculated with 1 ml of a mixture of Pseudomonas species containing predominantly Pseudomonas putida and Pseudomonas stutzeri that are resistant to BM2. Each of the samples was incubated at 30° C. for 72 hours. Thereafter, a 1:10 dilution in phosphate buffered saline (PBS) was plated on plate count agar (PCA). These plates were incubated at 30° C. and analysed after 5 days.
Biocide mixture 2 (BM2) is an aqueous solution containing 85% by weight of EGHF and 1.5% by weight of a combination of CIT and MIT (in a weight ratio CIT:MIT of 3:1), relative to the total solution weight. […]

The subject of assay [3] is Pseudomonas aeruginosa. Conditions: in combination with 500 ppm of triazine biocide; TSB-based plates; cited from earlier work.
Assay [4] concerns mixture of Pseudomonas species containing predominantly Pseudomonas putida and Pseudomonas stutzeri that are resistant to BM1. The experiment in a line: Biocidal activity in slurry, BM1-resistant bacteria. The class given is cell-based. Conditions: GNCCS1 slurry. On the procedure: as §1
BM1 and AMP were introduced into 50 g samples of each of the slurries indicated in Table 3 in the listed amounts (quoted in ppm based on the weight of the aqueous phase in the slurry). References were prepared according to the same protocol but in absence of AMP and in absence of AMP and BM1.
The slurry samples were then inoculated with 1 ml of a mixture of Pseudomonas species containing predominantly Pseudomonas putida and Pseudomonas stutzeri that are resistant to BM1. Each of the samples was incubated at 30° C. for 72 hours. Thereafter, a 1:10 dilution in phosphate buffered saline (PBS) was plated on plate count agar (PCA). These plates were incubated at 30° C. and analysed after 5 days.
Biocide mixture 1 (BM1) is an aqueous solution containing 24% by weight of GDA and 1.5% by weight of a combination of CIT and MIT (in a weight ratio CIT:MIT of 3:1), relative to the total solution weight. […]

The test system of assay [5] is mixture of Pseudomonas species containing predominantly Pseudomonas putida and Pseudomonas stutzeri that are resistant to OPP. The experiment in a line: Biocidal activity in slurry, OPP-resistant bacteria. As to conditions: GNCCS1 slurry. It counts as cell-based. On the procedure: as §1
OPP, in the form of an aqueous solution having a concentration of 45%, and MEA were introduced into 50 g samples of each of the slurries indicated in Table 11 in the listed amounts (quoted in ppm active content based on the weight of the aqueous phase in the slurry). A reference was prepared according to the same protocol but in absence of MEA. References were prepared according to the same protocol but in absence of MEA and in absence of MEA and OPP.
The slurry samples were then inoculated with 1 ml of a mixture of Pseudomonas species containing predominantly Pseudomonas putida and Pseudomonas stutzeri that are resistant to OPP. Each of the samples was incubated at 30° C. for 72 hours. Thereafter, a 1:10 dilution in phosphate buffered saline (PBS) was plated on plate count agar (PCA). These plates were incubated at 30° C. and analysed after 5 days.
Test 59 below represents the same slurry as Test 58, but following a second inoculation of 1 ml of a mixture of Pseudomonas species. […]

“Also recorded” adds a separate entry of the source.

In the case of `CC(C)(N)CO` [AMP, 2-amino-2-methyl-1-propanol], the figures for the “biocide enhancement (in words)” value in assay [1] and in assay [2] were “enhances the biocide function of BM1; also recorded: enhances the biocide function of BM2” and “enhances the biocide function of BM2”, respectively. Moreover, the “amount of AMP needed to significantly influence the growth rate of the bacteria” value in assay [3] is “more than 4 000 ppm”.

As to `NCCO` [MEA, 2-aminoethanol], the “biocide enhancement (in words)” value in assay [4] is on record as “enhances the biocide function of BM1”; in assay [2], “enhances the biocide function of BM2”; in assay [5] it was “enhances the biocide function of OPP”.

The record behind these values is US9006295B2, “Process for bacterial stabilizing of aqueous ground natural calcium carbonate and/or precipitated calcium carbonate and/or dolomite and/or surface-reacted calcium carbonate-comprising mineral preparations” (Omya International AG, priority 2009, dated 2015).
